Data taken from publication PMC6026081 (Bioorganic & medicinal chemistry letters, 2017).

Tests used:
[1] = Kinetic solubility by nephelometry; format: physicochemical; details: concentration range; for Sol2.0: 0.01 M HCl (approx. pH 2.0); for Sol6.5: pH 6.5 phosphate buffer
[2] = Plasma exposure after single oral dose in non-infected mice; format: in vivo, male Swiss outbred mice; details: single 100 mg/kg oral dose; for plasma concentration maintained over the 48 h sampling period / plasma concentration by ~18 h post-dose: non-infected mice; for plasma concentration maintained over the 48 h sampling period: up to 48 h post-dose; for systemic exposure (AUC to last measured concentration) relative to 1: fold higher than 1
[3] = Cytotoxicity, growth inhibition of HC-04 cells; format: cell-based; details: human, HC-04 cells (hepatocyte)
[4] = Cytotoxicity, growth inhibition of U-20S cells; format: cell-based; details: human
[5] = Cytotoxicity, growth inhibition of HEK293 cells; format: cell-based; details: human, HEK293 cells (kidney)
S. mansoni = details: 400 mg/kg dose; cited from earlier work
ex vivo S. mansoni = details: cited from earlier work
[6] = cited from earlier work
[7] = 46.3 mg/kg oral dose; cited from earlier work

## O=C(Nc1ccncc1)Nc1ccc(F)c(C(F)(F)F)c1 [Compd 6]
[1]
  Sol2.0: 6.3–12.5/6.3–12.5 μg/mL
  Sol6.5: 6.3–12.5/6.3–12.5 μg/mL

## CC(=O)c1ccc(NC(=O)Nc2ccc(F)c(C(F)(F)F)c2)cc1 [Compd 16]
[1]
  Sol2.0: <1.6/<1.6 μg/mL
  Sol6.5: <1.6/<1.6 μg/mL

## O=C(Nc1cccnc1)Nc1ccc(F)c(C(F)(F)F)c1 [Compd 7]
[1]
  Sol2.0: 50 to 100 µg/mL
  Sol6.5: 12.5 to 25 µg/mL

## O=C(Nc1ccc(F)c(C(F)(F)F)c1)Nc1cnccn1 [Compd 9]
[1]
  Sol2.0: 1.6 to 3.1 µg/mL

## NC(=O)c1ccc(NC(=O)Nc2ccc(F)c(C(F)(F)F)c2)cc1 [Compd 13]
[1]
  Sol2.0: 6.3–12.5/6.3–12.5 μg/mL
  Sol6.5: 6.3–12.5/6.3–12.5 μg/mL

## O=C(Nc1ccnc(C(F)(F)F)c1)Nc1ccc2c(c1)OC(F)(F)O2 [Compd 20]
[2]
  plasma concentration maintained over the 48 h sampling period: > 5 µM
[1]
  Sol2.0: 3.1–6.3/3.1–6.3 μg/mL
  Sol6.5: 3.1–6.3/3.1–6.3 μg/mL
[3]
  IC50: > 100 µM
[4]
  IC50: > 100 µM
[5]
  IC50: > 100 µM

## O=C(Nc1ccc2c(c1)OC(F)(F)O2)Nc1ccc2c(c1)OC(F)(F)O2 [Compd 5]
[2]
  plasma concentration maintained over the 48 h sampling period: > 5 µM
[1]
  Sol2.0: <1.6/<1.6 μg/mL
  Sol6.5: <1.6/<1.6 μg/mL
[3]
  IC50: > 100 µM
[4]
  IC50: > 100 µM
[5]
  IC50: > 100 µM

## O=C(Nc1cnccn1)Nc1cnccn1 [Compd 4]
[1]
  Sol2.0: 6.3–12.5/6.3–12.5 μg/mL
  Sol6.5: 6.3–12.5/6.3–12.5 μg/mL

## N#Cc1ccc(NC(=O)Nc2ccc(F)c(C(F)(F)F)c2)cc1 [Compd 15]
[2]
  plasma concentration by ~18 h post-dose: below 1 μM
[1]
  Sol2.0: <1.6/<1.6 μg/mL
  Sol6.5: <1.6/<1.6 μg/mL
[3]
  IC50: > 100 µM
[4]
  IC50: > 100 µM
[5]
  IC50: > 100 µM

## N#Cc1ccc(NC(=O)Nc2ccnc(C(F)(F)F)c2)cc1 [Compd 19]
[2]
  plasma concentration by ~18 h post-dose: below 1 μM
[1]
  Sol2.0: 1.6–3.1/1.6–3.1 μg/mL
  Sol6.5: 1.6–3.1/1.6–3.1 μg/mL
[3]
  IC50: > 100 µM
[4]
  IC50: > 100 µM
[5]
  IC50: > 100 µM

## O=C(Nc1ccnc(C(F)(F)F)c1)Nc1ccc(F)c(C(F)(F)F)c1 [Compd 18]
[2]
  systemic exposure (AUC to last measured concentration) relative to 1: 2–4 fold
[1]
  Sol2.0: 3.1–6.3/3.1–6.3 μg/mL
  Sol6.5: 3.1–6.3/3.1–6.3 μg/mL
[3]
  IC50: > 100 µM
[4]
  IC50: > 100 µM
[5]
  IC50: > 100 µM

## O=C(Nc1ccc(C(=O)O)cc1)Nc1ccc(F)c(C(F)(F)F)c1 [Compd 11]
[1]
  Sol6.5: 12.5 to 25 µg/mL

## O=C(Nc1ccncc1)Nc1ccncc1 [Compd 3]
[1]
  Sol6.5: 12.5 to 25 µg/mL

## Cc1cc(NC(=O)Nc2ccc(F)c(C(F)(F)F)c2)on1 [Compd 10]
[1]
  Sol2.0: 12.5 to 25 µg/mL
  Sol6.5: 6.3 to 12.5 µg/mL

## O=C(C1CCCCC1)N1CC(=O)N2CCc3ccccc3C2C1 (stereo not shown) [praziquantel]
S. mansoni
  worm burden reduction: 96%

## O=C(Nc1ccc(F)c(C(F)(F)F)c1)Nc1ccccn1 [Compd 8]
[1]
  Sol2.0: 1.6 to 3.1 µg/mL

## O=C(Nc1ccnc(C(F)(F)F)c1)Nc1ccnc(C(F)(F)F)c1 [Compd 2]
[2]
  systemic exposure (AUC to last measured concentration) relative to 1: 2–4 fold
[1]
  Sol2.0: 12.5–25/12.5–25 μg/mL
  Sol6.5: 12.5–25/12.5–25 μg/mL
[3]
  IC50: > 100 µM
[4]
  IC50: > 100 µM
[5]
  IC50: > 100 µM

## O=C(Nc1ccc(F)c(C(F)(F)F)c1)Nc1ccc(F)c(C(F)(F)F)c1 [Compd 1]
[2]
  plasma concentration maintained over the 48 h sampling period: above 1 μM
[1]
  Sol2.0: <1.6/<1.6 μg/mL
  Sol6.5: <1.6/<1.6 μg/mL
[3]
  IC50: > 100 µM
[4]
  IC50: > 100 µM
[5]
  IC50: > 100 µM

## O=C(Nc1ccc2c(c1)OC(F)(F)O2)Nc1ccc(F)c(C(F)(F)F)c1 [Compd 17]
[2]
  plasma concentration maintained over the 48 h sampling period: > 5 µM
[1]
  Sol2.0: <1.6/<1.6 μg/mL
  Sol6.5: <1.6/<1.6 μg/mL
[3]
  IC50: > 100 µM
[4]
  IC50: > 100 µM
[5]
  IC50: > 100 µM

## O=C(Nc1ccc(Cl)c(Cl)c1)Nc1ccc(Cl)c(Cl)c1 [MMV665852]
Ex vivo S. mansoni
  in vitro selectivity index: 64 fold
  potency against ex vivo S. mansoni relative to praziquantel (fold less potent): 4 fold
[6]
  LogD7.4: 5.2
[7]
  half-life: 4.7 h

## NC(=O)c1ccccc1NC(=O)Nc1ccc(F)c(C(F)(F)F)c1 [Compd 14]
[1]
  Sol2.0: 1.6–3.1/1.6–3.1 μg/mL
  Sol6.5: 1.6–3.1/1.6–3.1 μg/mL

## O=C(Nc1cccc(C(=O)O)c1)Nc1ccc(F)c(C(F)(F)F)c1 [Compd 12]
[1]
  Sol2.0: 1.6 to 3.1 µg/mL
  Sol6.5: 12.5 to 25 µg/mL
